Values quoted from earlier work, collected in paper PMC13092032, “Unlocking the potential of alkaline polymethacrylates via ionic crosslinking in amorphous solid dispersions” (International Journal of Pharmaceutics: X, 2026).

Details: Table 2; no method or source printed

**Q.** With Cc1ccc(-c2cc(C(F)(F)F)nn2-c2ccc(S(N)(=O)=O)cc2)cc1 [Celecoxib] as the compound, how does the “Log P” value read?
**A.** Its value is 3.5.

**Q.** For O=C1Nc2ccc(Cl)cc2[C@@](C#CC2CC2)(C(F)(F)F)O1 [Efavirenz], which “Log P” value is on record?
**A.** The value was 4.7.
